Tested on: LTB4
Experiment: Study DG-031-204: ionomycin-stimulated LTB4 in whole blood
Format: in vivo, human
Conditions: for Stimulated LTB4 (% change from baseline, whole blood, WBC corrected, 15 minute): after 4 weeks
Description: Briefly, the cell pellets from the Ficoll gradient were harvested and the red blood cells were subsequently lysed in 0.165 M NH4CL for 10 minutes on ice. After washing with PBS, neutrophils were counted and plated at 2×10^6 cells/ml in 4 ml cultures of 15% Fetal calf serum (FCS) (GIBCO BRL) in RPMI-1640 (GIBCO BRL). The cells were then stimulated with maximum effective concentration of ionomycin (1 μM). At 0, 15, 30, 60 minutes post ionomycin addition 600 μl of culture medium was aspirated and stored at −80° C. for the measurement of LTB4 release as described below. The cells were maintained at 37° C. in a humidified atmosphere of 5% CO2/95% air. All samples were treated with indomethasine (1 μM) to block the cyclooxygenase enzyme. The experimental conditions are described above.
LTB4 Immunoassay Assay Design was used to quantitate LTB4 concentration in supernatant from cultured ionomycin stimulated neutrophils. The assay used is based on the competitive binding technique in which LTB4 present in the testing samples (200 μl) competes with a fixed amount of alkaline phosphatase-labelled LTB4 for sites on a rabbit polyclonal antibody. During the incubation, the polyclonal Ab becomes bound to a goat anti-rabbit Ab coated onto the microplates. Following a wash to remove excess conjugate and unbound sample, a substrate solution is added to the wells to determine the bound enzyme activity. The color development is stopped and the absorbance is read at 405 nm. The intensity of the color is inversely proportional to the concentration of LTB4 in the sample. Each LTB4 measurement using the LTB4 Immunoassay, was done in duplicate. […]
The biomarkers were analyzed as described in Example 1. […]
Serum was collected weekly for determination of LTB4 concentration in response to the treatment with DG-031. […] Stimulated LTB4 effects measured in study DG-031-204, as shown in the raw data set out in Table 12, appear consistent with projections from the exposure-response analysis based on data from studies DG-031-201 and DG-031-203. […]

O=C(O)[C@@H](c1ccc(OCc2ccc3ccccc3n2)cc1)C1CCCC1 [DG-031, (R)-(+)-alpha-cyclopentyl-4-(2-quinolinylmethoxy)-Benzeneacetic acid]
Reduction of LTB4 levels, ionophore-stimulation assay (500 mg BID): 35%
Stimulated LTB4 (% change from baseline, whole blood, WBC corrected, 15 minute) (1000 mg (500 mg BID)): −44%
Stimulated LTB4 (% change from baseline, whole blood, WBC corrected, 15 minute) (1500 mg (500 mg TID)): −28%

— patent US20090030037A1, “Sustained Release Formulation and Dosing Schedules of Leukotriene Synthesis Inhibitor for Human Therapy” (deCODE Genetics ehf., priority 2005, published 2009)
